“Also recorded” adds a separate entry of the source. Like-named read-outs stand apart in the source and are kept apart here.
Key:
[1] = Cell viability (MTT) assay, 45 min exposure in classic buffer; conditions: dromedary camel, transduced Dubca cells overexpressing human Panx1
[2] = test system: transduced Dubca cells overexpressing human Panx1; experiment: Cell viability (MTT) assay, 24 h exposure, for CC10 determination; conditions: sigmoidal curve fit
[3] = cited from earlier work
[4] = test system: transduced Dubca cells overexpressing human Panx1; conditions: dromedary camel
Panx1 mRNA expression = Panx1 mRNA expression by RT-qPCR analysis; assay type: cell-based, human; conditions: 24 h exposure, BC, BC/2, BC/10
Panx1 protein expression = Panx1 protein expression by immunoblot analysis; assay type: cell-based, human; conditions: 24 h exposure, BC, BC/2, BC/10; total Panx1 and glycosylated isoforms
human Panx1 channels = target: T1, human Panx1 channels (Homo sapiens, UniProt Q96RD7); experiment: Panx1 channel activity assay (extracellular ATP release after osmotic shock); assay type: cell-based; conditions: for Effect on extracellular ATP release / Panx1 channel activity (in words): 45 min exposure, six concentrations BC/10 to BCx10; for Concentration with significant inhibition of Panx1 channel activity (extracellular ATP release): 45 min exposure (15 min preincubation + 30 min osmotic buffer), combination given as final lopinavir concentration
T1 construct: expressed in transfected cells; host or cells: Dubca cells, transduced, stably overexpressing human Panx1
T1 sequence (Q96RD7 whole entry): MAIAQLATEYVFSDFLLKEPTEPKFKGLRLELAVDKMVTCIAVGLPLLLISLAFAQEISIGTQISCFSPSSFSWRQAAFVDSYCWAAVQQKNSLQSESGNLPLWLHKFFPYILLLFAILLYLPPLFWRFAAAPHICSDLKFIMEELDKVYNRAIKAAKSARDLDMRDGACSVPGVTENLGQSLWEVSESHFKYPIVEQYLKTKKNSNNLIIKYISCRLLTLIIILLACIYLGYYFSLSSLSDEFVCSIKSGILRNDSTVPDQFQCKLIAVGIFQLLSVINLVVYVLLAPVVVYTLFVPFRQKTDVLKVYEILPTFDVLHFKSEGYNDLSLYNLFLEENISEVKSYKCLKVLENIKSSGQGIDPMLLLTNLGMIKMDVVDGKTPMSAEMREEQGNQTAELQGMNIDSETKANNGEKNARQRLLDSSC

[5] = maximum plasma concentration extracted from literature and recalculated to µM, reference per cell

| Structure (SMILES) | CC10 (concentration inducing 10% of cell death) [2] [µM] | Cmax [3, 5] [µM] | CC10 (concentration inducing 10% of cell death) [4] [µM] | Effect on Panx1 mRNA levels (Panx1 mRNA expression) | Effect on Panx1 protein levels (Panx1 protein expression) | Effect on extracellular ATP release / Panx1 channel activity (in words) (human Panx1 channels) | also measured |
| --- | --- | --- | --- | --- | --- | --- | --- |
| CC[C@H]1OC(=O)[C@H](C)[C@@H](O[C@H]2C[C@@](C)(OC)[C@@H](O)[C@H](C)O2)[C@H](C)[C@@H](O[C@@H]2O[C@H](C)C[C@H](N(C)C)[C@H]2O)[C@](C)(O)C[C@@H](C)CN(C)[C@H](C)[C@@H](O)[C@]1(C)O [Azithromycin (dihydrate), azithromycin dihydrate] | 59 | 0.52 | – | – | – | – | viability at 45 min, 590 µM [1]: 74% |
| CCN(CC)CCCC(C)Nc1ccnc2cc(Cl)ccc12 (stereo not drawn) [Chloroquine (diphosphate), chloroquine diphosphate] | – | 0.81 | 18 | – | – | – | – |
| C[C@@H]1C[C@H]2[C@@H]3CCC4=CC(=O)C=C[C@]4(C)[C@@]3(F)[C@@H](O)C[C@]2(C)[C@@]1(O)C(=O)CO [Dexamethasone, dexamethasone] | – | 0.63 | >200 | – | – | – | – |
| NC(=O)c1nc(F)c[nH]c1=O [Favipiravir, favipiravir] | >200 | – | – | without affecting mRNA or protein levels | without affecting mRNA or protein levels | significant decrease in extracellular ATP release; also recorded: inhibit Panx1 channel activity | Cmax ([3]; in vivo): 53.4 µM |
| CCN(CCO)CCCC(C)Nc1ccnc2cc(Cl)ccc12 (stereo not drawn) [Hydroxychloroquine (sulphate), hydroxychloroquine sulphate] | 23 | 0.97 | – | without affecting mRNA or protein levels | without affecting mRNA or protein levels | – | Concentration with significant inhibition of Panx1 channel activity (extracellular ATP release) (human Panx1 channels): 23 µM; Effect on extracellular ATP release / Panx1 channel activity (in words) (human Panx1 channels; listed as hydroxychloroquine): inhibit Panx1 channel activity; Effect on extracellular ATP release / Panx1 channel activity (in words) (human Panx1 channels; listed as hydroxychloroquine sulphate): significant decrease in extracellular ATP release |
| Cc1cccc(C)c1OCC(=O)N[C@@H](Cc1ccccc1)[C@@H](O)C[C@H](Cc1ccccc1)NC(=O)[C@H](C(C)C)N1CCCNC1=O [Lopinavir, lopinavir] | 17 | – | – | without affecting mRNA or protein levels | without affecting mRNA or protein levels | significant decrease in extracellular ATP release; also recorded: inhibit Panx1 channel activity | Concentration with significant inhibition of Panx1 channel activity (extracellular ATP release) (human Panx1 channels): 85 µM |
| CCC(CC)COC(=O)[C@H](C)N[P@](=O)(OC[C@H]1O[C@@](C#N)(c2ccc3c(N)ncnn23)[C@H](O)[C@@H]1O)Oc1ccccc1 [Remdesivir] | – | 9.03 | >100 | – | – | comparable concentration-dependent trend | – |
| CC(C)c1nc(CN(C)C(=O)N[C@H](C(=O)N[C@@H](Cc2ccccc2)C[C@H](O)[C@H](Cc2ccccc2)NC(=O)OCc2cncs2)C(C)C)cs1 [Ritonavir, ritonavir] | 12 | 22.5 | – | – | – | did not decrease extracellular ATP release | – |

From paper PMC9146942 (International Journal of Molecular Sciences, 2022)
